# Experiments:
# [1] = target: T1, human recombinant Cdk5/p35 heterodimer (Homo sapiens, UniProt Q00535); test: Cdk5 assay (Z'-LYTE FRET enzymatic activity); assay type: biochemical; details: 10 nM enzyme, 12.5 µM ATP, 2 µM Ser/Thr 12 peptide, 60 min at room temperature; concentration in M units; read-out: Cdk5 inhibition pEC50 average (converted)
# T1 construct: purchased Invitrogen (Life Technologies)
# Protocol: The enzymatic activity of Cdk5 was determined with a commercial system based on the Z'-LYTE® technology, available from Life Technologies (Carlsbad, CA, USA), using human recombinant Cdk5/p35 heterodimer, also available from Invitrogen as the enzyme source. This technology utilizes the fluorescence resonance energy transfer ("FRET") process between fluorescein and coumarin. The assay principle is based on the differential sensitivity of phosphorylated and non-phosphorylated peptide to proteolytic cleavage, which precludes the energy transfer process between the two fluorophores attached to both sides of the cleavage site. […] The assay is performed in 384-well black plates, in a final volume of 10 µl, with 10 nM enzyme concentration, in 50 mM Hepes pH 7.5, 50 mM MgCl2, 5 mM EGTA and 0.05% Brij-35, using 12.5 µM ATP and 2 µM substrate peptide. The latter is a synthetic peptide provided by Invitrogen, under the commercial name "Ser/Thr 12 peptide", and it is based upon the sequence of Cdk7, containing Ser-164 and a (Ser/Thr)-Pro-X-(Lys/Arg) consensus sequence, wherein X is any residue. The peptide is labeled at both ends with fluorescein and coumarin. The assay is carried out in the presence of different concentrations of the tested compound, at a final 1% (v/v) DMSO concentration. After a 60 min incubation, at room temperature, 5 µl of a commercial protease solution (sold by the same vendor in the assay kit) is added and a subsequent 1h incubation at room temperature is performed, before adding 5 µl of a suitable "stop solution", also provided by the vendor in the kit. After that, fluorescence intensity is recorded, monitoring emission at both 445 and 520 nm, upon excitation at 400 nm. An emission ratio is finally calculated, using the quotient among the emission at 445 nm divided by that at 520 nm.
# The emission ratio of each tested sample is normalized to that of the control wells, so that for every compound concentration the percentage of inhibition is calculated by using the following equation: % Inhibition = 100⋅(E-S)/(E-B) [formula] where "S" is the emission from the wells with the tested sample, "E" is the average emission from control wells with full enzyme activity and "B" is the average emission from wells with full enzyme inhibition. Inhibition values obtained for every compound concentration are finally used to calculate the pEC50 of the tested compound, this parameter being the negative value of the logarithm of the compound concentration, in M units, causing 50% of its maximum effect (i.e., the higher the pEC50 value the higher the potency of the compound). For that purpose the data were fitted to the following equation using the nonlinear regression function of GraphPad™ Prism 5.0 (GraphPad Software Inc.): % Inhibition = L + (H-L)/(1 + 10^(((logC+pEC50))^N)) [formula] where "L" is the lower asymptote of the theoretical sigmoidal curve, "H" is the higher asymptote, "C" is the concentration of compound in M units and "N" is the Hill coefficient.
# [2] = target: T2, human recombinant GSK3β (N-terminal 6His-tagged recombinant enzyme with an H350L mutation) (Homo sapiens, UniProt P49841); test: GSK-3 assay (Z'-LYTE FRET enzymatic activity); assay type: biochemical; details: 2 nM enzyme, 12.5 µM ATP, 2 µM Ser/Thr 9 peptide, 60 min at room temperature; concentration in M units; read-out: GSK-3 inhibition pEC50 average (converted)
# T2 construct: 6His (N); purchased Millipore (Billerica, MA, USA)
# T2 sequence (P49841 whole entry, stated change not applied): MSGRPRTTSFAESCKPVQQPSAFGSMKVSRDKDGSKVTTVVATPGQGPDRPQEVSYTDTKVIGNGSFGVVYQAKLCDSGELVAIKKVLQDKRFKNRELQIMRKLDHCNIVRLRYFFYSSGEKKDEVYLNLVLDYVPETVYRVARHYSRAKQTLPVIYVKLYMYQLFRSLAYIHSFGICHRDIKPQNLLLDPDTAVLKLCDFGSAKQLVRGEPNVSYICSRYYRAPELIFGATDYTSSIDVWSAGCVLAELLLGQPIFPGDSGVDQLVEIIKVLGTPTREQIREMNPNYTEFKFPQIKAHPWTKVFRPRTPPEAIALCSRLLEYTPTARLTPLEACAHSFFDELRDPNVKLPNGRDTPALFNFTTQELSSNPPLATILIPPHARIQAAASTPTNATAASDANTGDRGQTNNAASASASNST
# Protocol: The enzymatic activity of GSK3β was determined with a commercial system based on the Z'-LYTE® technology, available from Life Technologies (Carlsbad, CA, USA), using human recombinant GSK3β (N-terminal 6His-tagged recombinant enzyme with an H350L mutation) from Millipore (Billerica, MA, USA) as the enzyme source. This technology utilizes the fluorescence resonance energy transfer ("FRET") process between fluorescein and coumarin. The assay principle is based on the differential sensitivity of phosphorylated and non-phosphorylated peptide to proteolytic cleavage, which precludes the energy transfer process between the two fluorophores attached to both sides of the cleavage site. […] The assay is performed in 384-well black plates, in a final volume of 10 µl, with 2 nM enzyme concentration in 50 mM Hepes pH 7.5, 50 mM MgCl2, 5 mM EGTA and 0.05% Brij-35, using 12.5 µM ATP and 2 µM substrate peptide. The latter is a synthetic peptide, provided by Invitrogen under the commercial name "Ser/Thr 9 peptide", and it is based upon the sequence of a GSK3β substrate protein (glycogen synthase I) containing Ser-641. The peptide is labeled at both ends with fluorescein and coumarin. The assay is carried out in the presence of different concentrations of the tested compound, at a final 1 % (v/v) DMSO concentration. After a 60 min incubation at room temperature, 5 µl of a commercial protease solution (sold by the same vendor in the assay kit) is added and a subsequent 1h incubation at room temperature is performed, before adding 5 µl of a suitable "stop solution", also provided by the vendor in the kit. After that, fluorescence intensity is recorded, monitoring emission at both 445 and 520 nm, upon excitation at 400 nm. An emission ratio is finally calculated, using the quotient among the emission at 445 nm divided by that at 520 nm.
# The emission ratios for each concentration of compound are finally used to calculate the pEC50 value, according to the procedure described above for Cdk5.
# T1 sequence (Q00535 whole entry): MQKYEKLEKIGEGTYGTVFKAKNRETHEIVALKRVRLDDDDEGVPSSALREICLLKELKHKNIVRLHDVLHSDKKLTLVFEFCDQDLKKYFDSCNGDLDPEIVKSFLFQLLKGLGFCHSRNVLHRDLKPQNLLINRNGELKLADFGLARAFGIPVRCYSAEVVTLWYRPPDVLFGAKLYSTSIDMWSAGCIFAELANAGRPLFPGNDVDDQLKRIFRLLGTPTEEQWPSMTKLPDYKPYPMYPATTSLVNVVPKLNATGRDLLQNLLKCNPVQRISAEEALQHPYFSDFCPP
# T1 sequence (Q15078 whole entry partner): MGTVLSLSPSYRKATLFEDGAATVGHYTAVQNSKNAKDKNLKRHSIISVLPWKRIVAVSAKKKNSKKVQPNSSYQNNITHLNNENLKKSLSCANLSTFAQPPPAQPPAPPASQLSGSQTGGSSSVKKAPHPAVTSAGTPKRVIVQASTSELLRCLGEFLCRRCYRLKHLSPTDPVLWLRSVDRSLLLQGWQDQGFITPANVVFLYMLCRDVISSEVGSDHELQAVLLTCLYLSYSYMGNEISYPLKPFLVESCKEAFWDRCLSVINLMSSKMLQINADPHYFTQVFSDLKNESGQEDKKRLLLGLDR
Compound,EC50 [1] [µM],EC50 [2] [µM]
CN1C(=N)NCC1c1c(C(=O)O)[nH]c2ccc(Br)cc12 (centres unmarked) [Compound 1],1.1,35.5
CN1C(N)=NCC1c1c(C(=O)O)[nH]c2ccccc12 (centres unmarked) [Compound 7],0.933,42.7
CN1C(=N)NCC1c1c(C(=O)O)[nH]c2cc(O)c(Br)cc12 (centres unmarked) [Compound 3],0.0955,11.2
CN1C(=N)N(C)C(c2c(C(=O)O)[nH]c3cc(O)c(Br)cc23)C1O (centres unmarked) [Compound 6],0.049,8.32
CN1CC(c2c(C(=O)O)[nH]c3cc(O)c(Br)cc23)N(C)C1=N (centres unmarked) [Compound 4],0.0741,15.5
CN1C(=N)N(C)C(c2c(C(=O)O)[nH]c3ccc(Br)cc23)C1O (centres unmarked) [Compound 5],3.09,97.7
CN1CC(c2c(C(=O)O)[nH]c3ccc(Br)cc23)N(C)C1=N (centres unmarked) [Compound 2],2.82,74.1

# — patent EP2662081A1, “Therapeutic use of indole-dihydro-imidazole derivatives” (NOSCIRA, S.A., priority 2012, dated 2013)
